Reference: article PMC10380385, “Synthesis, In Vitro, and In Vivo Investigations of Pterostilbene-Tethered Analogues as Anti-Breast Cancer Candidates” (International Journal of Molecular Sciences, 2023)
Several values for one entry are separate records, joined by “and”; a condition that tells them apart may be missing. Equal entries are not always repeated.

Key:
[1] = tested on: MCF-10A (human breast epithelial cell line); test: Cytotoxic activity against MCF-10A; assay type: cell-based; conditions: cytotoxicity, normal breast epithelial cells
Experimental: (§1) The in vitro anti-proliferative activity of all synthesized analogues against MDA-MB-231 and MCF-7 cells was tested using the 3-(4,5-dimethylthiazol-2-yl)-[…] (MTT) method. […] Usually, Dox has been used as a positive control in many basic studies, especially drug screening assay. […] In the meantime, the cytotoxic activity of 2K–2N, PTE, and Dox against MCF-10A (human breast epithelial cell line) was examined. […] By contrast, the substitution of a saturated six-membered nitrogen heterocyclic ring on the side chain is extremely favorable for enhancing anti-BC efficacy (2L–2N vs. 1, PTE, 2A–2J). Based on the preceding analysis, analogue 2L was selected as the most promising anti-BC agent and used in the follow-up study.

[2] = tested on: MCF-7 cells; test: MTT anti-proliferative assay, MCF-7; assay type: cell-based; conditions: Homo sapiens, MCF7, 48 h
Experimental: as §1
(§2) The human breast cancer cell lines MDA-MB-231 and MCF-7 were purchased from the Chinese Academy of Science and cultured in Dulbecco’s modified Eagle’s medium (DMEM, Gibco, New York, NY, USA) containing 10% fetal bovine serum (FBS), 2 mM L-glutamine, 100 U/mL penicillin, and 100 μg/mL streptomycin. Then, the cells were maintained in a humidified incubator at 37 °C in the presence of 5% CO2.
(§3) The MTT assay was used to test the effect of PTEs on cell viability. The MDA-MB-231 (3 × 10^3 cells/well) and MCF-7 (4 × 10^3 cells/well) cells were seeded in a 96-well plate and cultured at 37 °C in a 5% CO2 incubator overnight. Afterwards, the medium was replaced with different concentrations of the title compounds (1, 3, 10, 30, and 100 μM). After incubation for 48 h, 10 μL of MTT solution (5 mg/mL) was added to each well and incubated for another 4 h. The optical density (OD) of the samples was measured using a microplate reader (Biotek, Burlington, VT, USA) at 570 nm. The inhibition rate (%) = [A570 (control) − A570 (compound)]/A570 (control) × 100%. The IC50 values were calculated using SPSS software version 17.0 (SPSS Inc., Chicago, IL, USA).

[3] = tested on: MDA-MB-231 cells; test: MTT anti-proliferative assay, MDA-MB-231; assay type: cell-based; conditions: Homo sapiens, 48 h
Experimental: as §1, §2, §3

[4] = tested on: MCF-7 cells; test: DNA content / cell cycle of PI-stained cells by flow cytometry, MCF-7; assay type: cell-based, human; conditions: MCF-7, 10.0 μM
From the text: (§4) It is commonly acknowledged that […] DNA fragmentation is a crucial hallmark of cell apoptosis. Next, we assessed the influence of 2L on the DNA content of PI-stained BC cells using flow cytometry. […] In turn, treatment with 2L led to an apparent enhancement of the number of MCF-7 cells, from 51.7% to 63.0%. […] An augmentation of DNA distribution in the SubG1 peak was representative of the occurrence of apoptosis in 2L-exposed groups, which further confirmed that 2L could induce the apoptosis of BC cells. In addition, the quantitative analysis of DNA distribution for the subG1, G0/G1, S, and G2/M phases appeared to show similar alterations (Figure 4B,D).

[5] = tested on: MDA-MB-231 xenograft; test: MDA-MB-231-derived xenograft mouse model; assay type: in vivo; conditions: for tumor growth inhibition (TGI): intraperitoneal, every other day, 10 treatments, by tumor weight
Experimental: BALB/c nude mice (female, 6–7 weeks) were purchased from Changsheng Biotechnology Co., Ltd. (Liaoning, China). MDA-MB-231 cells (5 × 10^6 cells/mouse) were injected subcutaneously into the right back of the nude mice. When the tumor volume reached approximately 55 mm^3, the female mice were randomly divided into two treatment groups (25, 50 mg/kg) and a vehicle group (equal volume of normal saline) with five mice in each group. Throughout the experiment, 2L and saline were intraperitoneally injected every other day for 10 treatments. At the same time, the changes in tumor volume and body weight of the nude mice were tracked and recorded. The tumor volumes were assessed using the formula: V (mm^3) = (length × width^2)/2. At the end of the experimental period, tumor tissues were harvested, weighed, and collected. The TGI rate was calculated by the average tumor weight of the 2L-treated and control groups.

[6] = tested on: MDA-MB-231 cells; test: DNA content / cell cycle of PI-stained cells by flow cytometry, MDA-MB-231; assay type: cell-based, human; conditions: MDA-MB-231, 10.0 μM
From the text: as §4

[7] = tested on: MDA-MB-231 cells; test: Mitochondrial membrane potential JC-1 assay, MDA-MB-231; assay type: cell-based, human; conditions: MDA-MB-231, 24 h, flow cytometry
Experimental: (§5) The MMP was assayed using a JC-1 assay kit (Beyotime, Shanghai, China) according to the manufacturer’s instructions. In brief, MDA-MB-231 and MCF-7 cells were plated in 24-well plates at a density of 6 × 10^4 cells per well. After intervention with 2L (0, 10 μM) for 24 h, the cells were washed once with PBS. Cell culture solution (0.5 mL) and JC-1 working solution (0.5 mL) were successively added, mixed well, and incubated at 37 °C for 20 min in the dark. After washing twice with 1 × JC-1 staining buffer, the cells were resuspended in fresh culture medium. The graphical results were observed under a fluorescence microscope.
(§6) MDA-MB-231 and MCF-7 cells were incubated in 6-well plates at a density of 3 × 10^5 cells per dish and exposed to 2L for 24 h. Cell culture media (1 mL) and JC-1 staining working solution (1 mL) were added, thoroughly mixed, and incubated at 37 °C for 20 min. After washing twice with 1 × JC-1 staining buffer, the cells were collected and resuspended in 500 μL JC-1 staining buffer and then instantly analyzed using a flow cytometry.

[8] = tested on: MCF-7 cells; test: Mitochondrial membrane potential JC-1 assay, MCF-7; assay type: cell-based, human; conditions: MCF-7, 24 h, flow cytometry
Experimental: as §5, §6

[9] = tested on: apoptosis-related proteins in MDA-MB-231 cells; test: Western blot of apoptosis-related proteins, MDA-MB-231; assay type: cell-based, human; conditions: MDA-MB-231, 2L 1.1, 3.3, 10 μM, 24 h
Experimental: (§7) MDA-MB-231 and MCF-7 cells were cultured in a 6-well plate with the density of 3 × 10^5 cells/well and treated with different concentrations of 2L (0, 1.1, 3.3, 10 μM) for 24 h. The cells were lysed in radioimmunoprecipitation assay (RIPA) buffer (Beyotime, Shanghai, China) containing 1% protease inhibitor cocktail and 1 mM phenylmethylsulfonyl fluoride (PMSF, Sigma-Aldrich, St. Louis, MO, USA). After centrifugation, the supernatant was collected and quantified by BCA assay (Beyotime). Lysates were mixed with the loading buffer (5 ×) and denatured by boiling for 10 min. Then, the equivalent samples were separated via 10–15% sodium dodecyl–sulfate polyacrylamide gel electrophoresis (SDS-PAGE), transferred to 0.45 µm immunoblot poly(vinylidene fluoride) (PVDF) membranes (Merck Millipore, Darmstadt, Germany) at 4 °C, and blocked in 5% skimmed milk in TBST for 1 h at room temperature. The membranes were incubated overnight at 4 °C with specific primary antibodies. After washing three times with TBST, the PVDF membranes were incubated with horseradish peroxidase (HRP)-conjugated secondary antibodies at rt for 1 h. Lastly, the resulting bands were visualized by a Bio-Rad ChemiDoc imaging system ([…]) using enhanced chemiluminescence reagents (Millipore, Billerica, MA, USA). The details of the corresponding primary antibodies were as follows: Bax (2772; Cell Signaling Technology), Bcl-2 (3498; Cell Signaling Technology), cleaved caspase-3 (9661; Cell Signaling Technology), cleaved caspase-9 (9505; Cell Signaling Technology), and PARP (9542; Cell Signaling Technology). The HRP-secondary antibodies were also obtained from Cell Signaling Technology (Boston, MA, USA).

[10] = tested on: MCF-7 cells; test: Intracellular ROS, DCFH-DA, MCF-7; assay type: cell-based, human; conditions: MCF-7, 2L 24 h, vs control
Experimental: (§8) The Reactive Oxygen Species Assay Kit was used to measure intracellular ROS levels. MDA-MB-231 and MCF-7 cells (6 × 10^4 cells/well) were seeded onto 24-well plates and treated with 2L (0, 10 μM) for 24 h. Subsequently, the cells were washed with PBS and stained with dichlorodihydrofluorescein diacetate (DCFH-DA, 10 μM) at 37 °C for 20 min in the dark. Following three washes with serum-free DMEM, the fluorescence alteration was photographed using a fluorescence microscope.
(§9) MDA-MB-231 and MCF-7 cells were plated in 6-well plates with a density of 3 × 10^5 cells/well. After exposure to 2L for 24 h, the cells were incubated with 10 μM DCFH-DA at 37 °C for 20 min in the dark. Later, the cells were slightly washed three times with serum-free DMEM and centrifuged (1000 rpm, 5 min). The collected cells were resuspended in PBS and loaded into a flow cytometer.

[11] = tested on: MDA-MB-231 cells; test: Intracellular ROS, DCFH-DA, MDA-MB-231; assay type: cell-based, human; conditions: MDA-MB-231, 2L 24 h, vs control
Experimental: as §8, §9

[12] = tested on: MCF-7 cells; test: Annexin V-FITC/PI apoptosis flow cytometry, MCF-7; assay type: cell-based, human
Experimental: (§10) MDA-MB-231 and MCF-7 cells (3 × 10^5 cells/well) were seeded into 6-well plates. After that, the cells were treated with 2L (0, 10 μM) for 24 h. Cells were harvested, washed repeatedly with cold phosphate-buffered saline (PBS), and resuspended in 195 μL of binding buffer. Then, 4 μL annexin V-FITC reagent (Beyotime) and 8 μL propidium iodide (PI, Beyotime) were added to the samples and gently mixed. After incubation for 15 min in the dark at room temperature, the stained cells were immediately detected by a FACScan flow cytometer (BD Biosciences, San Jose, CA, USA) and analyzed with the annexin V-FITC/PI apoptosis method.

[13] = tested on: apoptosis-related proteins in MCF-7 cells; test: Western blot of apoptosis-related proteins, MCF-7; assay type: cell-based, human; conditions: MCF-7, 2L 1.1, 3.3, 10 μM, 24 h
Experimental: as §7

[14] = tested on: MDA-MB-231 cells; test: Annexin V-FITC/PI apoptosis flow cytometry, MDA-MB-231; assay type: cell-based, human
Experimental: as §10

In the case of `COc1cc(/C=C/c2ccc(OCCCn3ccnc3)cc2)cc(OC)c1` [Compound 2K, (E)-1-(3-(4-(3,5-dimethoxystyryl)phenoxy)propyl)-1H-imidazole], the IC50 [1] is reported as 49 ± 1.31 µM, the IC50 [2] is reported as 21 ± 0.56 µM and the IC50 [3] is reported as 18.7 ± 0.71 µM.
In the case of `COc1cc(/C=C/c2ccc(OCCCN3CCCCC3)cc2)cc(OC)c1` [Compound 2L, (E)-1-(3-(4-(3,5-dimethoxystyryl)phenoxy)propyl)piperidine], the “percentage of cells in subG1” value [4] is reported as 7.83%, the “proportion of cells in G0/G1 phase” value [4] is reported as 63.0% and the IC50 [1] is reported as 68.9 ± 0.93 µM. The “tumor growth inhibition (TGI)” value ([5]; 25 mg/kg) was 42.0%, the “tumor growth inhibition (TGI)” value ([5]; 50 mg/kg) was 69.9% and the “toxicity in nude mice (body weight fluctuation)” value ([5]; 25 and 50 mg/kg, whole study) was “no obvious toxicity”. The “level of Bcl-2 protein in tumor tissues” value ([5]; Western blot, vs control group) was “decreased”, the “protein expression of Bax in tumor tissues” value ([5]; Western blot, vs control group) was “noticeably increased” and the “protein expression of cleaved PARP in tumor tissues” value ([5]; Western blot, vs control group) was “noticeably increased”. The “percentage of cells in subG1” value [6] was 7.99%, the “proportion of cells in G0/G1 phase” value [6] was 61.7% and the “ΔΨm level after 2L” value [7] was 83.9%. The “ΔΨm level after 2L” value [8] was 85.0%, the “expression of Bcl-2” value [9] was “markedly downregulated” and the “level of Bax” value [9] was “upregulated”. For the same compound, the “protein expression of cleaved caspase-3” value [9] was “increase”, the “protein expression of cleaved caspase-9” value [9] was “increase” and the “protein level of cleaved PARP” value [9] was “effectively elevate”. For the same compound, the “mean ROS-associated fluorescence intensity” value [10] was “greatly increased”, the IC50 [2] was 11.7 ± 0.55 µM and the “mean ROS-associated fluorescence intensity” value [11] was “greatly increased”. For the same compound, the “apoptosis ratio with NAC” value ([12]; MCF-7, 2L 10 μM + 5 mM NAC) was 6.7%, the “apoptosis ratio with Z-VAD-FMK” value ([12]; MCF-7, 2L 10 μM + Z-VAD-FMK 20 μM) was 6.5% and the “apoptotic percentage (early and late)” value ([12]; MCF-7, 2L 10 μM, 24 h) was 14.0% and 14.5% and 12.2%. The “expression of Bcl-2” value [13] was “markedly downregulated”, the “level of Bax” value [13] was “upregulated” and the “protein expression of cleaved caspase-3” value [13] was “increase”. For the same compound, the “protein expression of cleaved caspase-9” value [13] was “increase”, the “protein level of cleaved PARP” value [13] was “effectively elevate” and the “apoptosis ratio with NAC” value ([14]; MDA-MB-231, 2L 10 μM + 5 mM NAC) was 8.8%. The “apoptosis ratio with Z-VAD-FMK” value ([14]; MDA-MB-231, 2L 10 μM + Z-VAD-FMK 20 μM) was 6.2%, the “apoptotic percentage (early and late)” value ([14]; MDA-MB-231, 2L 10 μM, 24 h) was 12.7% and 16.1% and 13.1% and the IC50 [3] was 10.4 ± 0.4 µM.
Work on `COc1cc(/C=C/c2ccc(OCCCN3CCOCC3)cc2)cc(OC)c1` [Compound 2M, (E)-4-(3-(4-(3,5-dimethoxystyryl)phenoxy)propyl)morpholine] yielded an IC50 [1] of 70.39 ± 0.43 µM, an IC50 [2] of 42 ± 0.79 µM and an IC50 [3] of 49.3 ± 2.48 µM.
`COc1cc(/C=C/c2ccc(OCCCN3CCN(C)CC3)cc2)cc(OC)c1` [Compound 2N, (E)-1-(3-(4-(3,5-dimethoxystyryl)phenoxy)propyl)-4-methylpiperazine] showed an IC50 [1] of 37.3 ± 0.96 µM, an IC50 [2] of 18.1 ± 0.55 µM and an IC50 [3] of 17.7 ± 0.81 µM.
`COc1cccc2c1C(=O)c1c(O)c3c(c(O)c1C2=O)C[C@@](O)(C(=O)CO)C[C@@H]3O[C@H]1C[C@H](N)[C@H](O)[C@H](C)O1` [Dox, Doxorubicin, reference compound] showed an IC50 [1] of 2.27 ± 0.19 µM, an IC50 [2] of 3.57 ± 0.41 µM and an IC50 [3] of 2.3 ± 0.32 µM.
Work on `COc1cc(/C=C/c2ccc(O)cc2)cc(OC)c1` [PTE, 3,5-dimethoxy-4′-hydroxy-trans-stilbene, reference compound] yielded an IC50 [1] greater than 100 µM, an IC50 [2] of 44.3 ± 0.48 µM and an IC50 [3] of 63.59 ± 0.4 µM.
